# Test results published in patent publication US20140121181A1, “HYDROPHOBIC POLYMER COMPOUND HAVING ANTICOAGULANT EFFECT” (TORY INDUSTRIES, INC., priority 2011, published 2014).
# Tested on: citric acid-supplemented blood collected from a volunteer
# Assay: Measurement of whole blood coagulation time (Sonoclot, ACT ONSET value)
# Parameters: species or system human
# Procedure: In a cuvette (Non-activated Clotting Test Kit), 18 μL of physiological saline was placed and 14.8 μL of calcicol was added thereto, followed by further addition of 342 μL of the thus obtained citric acid-supplemented blood. The resulting mixture was measured using a Sonoclot blood coagulation/platelet function analyzer (IMI Co., Ltd.) and the measured ACT ONSET value was defined as the whole blood coagulation time.
smiles,measurement,setting,value
"CC1CNc2c(cccc2S(=O)(=O)N[C@@H](CCCNC(=N)N)C(=O)N2CC[C@@H](C)C[C@@H]2C(=O)O)C1 (mixture of isomers) [argatroban, (2R,4R)-4-methyl-1-((2S)-2-{[(3RS)-3-methyl-1,2,3,4-tetrahydroquinolin-8-yl]sulfonyl}amino-5-guanidinopentanoyl)piperidine-2-carboxylic acid]",whole blood coagulation time,2 μM test solution/dispersion in place of physiological saline,520 s
same,whole blood coagulation time,10 μM test solution in place of physiological saline,734 s
same,whole blood coagulation time,20 μM test solution in place of physiological saline,893 s
